Measured values as given in US20090023753A1, “1,3-Thiazole-5-Carboxamides Useful as Cancer Chemotherapeutic Agents” (Bayer HealthCare AG, priority 2005, published 2009).
pIC50: −log10 of the molar value.

Experiments:
[1] = biological target: T1, Flk-1 (murine VEGFR-2) kinase domain (Mus musculus, UniProt P35918); experiment: Flk-1 (murine VEGFR-2) Biochemical Assay (TR-FRET); details: 10 μM ATP, 7 nM Flk-1 (kinase domain)
T1 construct: 7 nM Flk-1 (kinase domain)

[2] = tested on: P-AKT/PKB in H209 small cell lung carcinoma cells; experiment: P-AKT/PKB Cytoblot Assay with H209 cells (SCF-stimulated); format: cell-based; details: Homo sapiens, NCI-H209, 1 hour compound incubation, SCF 25 ng/mL for 5 minutes, p-(S473) AKT
Description: The utility of the compounds of the present invention can be illustrated, for example, by their activity in the P-AKT/PKB Cytoblot Assay described below. The involvement of the P-AKT/PKB[PI3K/AKt] pathway as a target for cancer chemotherapy has been recognized in the art. For example, see F. Chang et al, Involvement of PI3K/Akt pathway in cell cycle progression, apoptosis, and neoplastic transformation: a target for cancer chemotherapy, Leukemia, 2003, 17: p. 590-603; K. A. West et al, Activation of the PI3K/Akt pathway and chemotherapeutic resistance, Drug Resistance Updates, 2002, 5: p. 234-248; and P. Sen et al, Involvement of the Akt/PKB signaling pathway with disease processes, Molecular and Cellular Biochemistry, 2003, 253: p. 241-246.
P-AKT/PKB Cytoblot Assay Protocol with H209 Cells
H209 small cell lung carcinoma cells in log phase were plated at 50,000 cells/well in 96-well poly-lysine coated, clear bottom/black-sided plates (Becton-Dickinson, USA Cat # 354640) in 100 Ill RPMI medium containing 0.1% (w/v) BSA, and incubated overnight at 37° C. in 5% CO2 incubator. The following day, compounds (10 mM stock solutions in DMSO) were added to the plates to generate final concentrations of 0.0, 0.01, 0.03, 0.1, 0.3, 1.0, 3.0 and 10 μM for IC50 determinations and incubated for 1 hour at 37° C. Cells were then left untreated or stimulated with Stem Cell Factor (SCF: Biosource Cat # PHC2116) at a final concentration of 25 ng/mL for 5 minutes at 37° C. in 5% CO2 incubator. The media was then removed using a vacuum manifold and the cells were washed once with Tris Buffered Saline (TBS). Cells were then fixed by adding 200 μl of cold 3.7% (v/v) formaldehyde in TBS to each well for 15 minutes at 4° C. After removal of the formaldehyde, the cells were treated with the addition of 50 μl of methanol (at −20° C.) to each well for 5 minutes. After removal of the methanol, 200 μl of 1% (w/v) BSA in TBS was added to each well to block non-specific antibody binding sites and the plate was incubated at room temperature for 30 minutes.
After removal of the blocking buffer, 50 μl of p-(S473) AKT rabbit polyclonal antibody (Cell Signaling, USA Cat # 9277S) was added at a dilution of 1:250 in 0.1% (w/v) BSA in TBS, and the plate was incubated at room temperature for 1 hour. Plates were then washed 3 times with cold TBS containing 0.05% (v/v) Tween 20 (TBS-T) and 100 μl of Horseradish peroxidase (HRP)-conjugated goat-anti-rabbit antibody (Amersham, USA Cat # NA934V) at a dilution of 1:250 in TBS-T was added and the plate was incubated at room temperature for 1 h. After washing with ice-cold TBS-T four times, 100 μl of Enhanced Chemiluminescence (ECL) reagent (Amersham, USA Cat# RPN2209) was added to each well and mixed on a mini-orbital shaker for 1 min. The plate was then read on a Perkin Elmer Victor 5 Multilabel Counter (#1420-0421).

[3] = tested on: phospho-ERK in MDA-MB-231 cells; experiment: Phospho-ERK Cytoblot Assay with MDA-MB 231 cells; format: cell-based; details: Homo sapiens, 1 hour compound incubation, phospho-p44/42 MAP kinase (Thr202/Tyr204)
Description: The utility of the compounds of the present invention can also be illustrated, for example, by their activity in the phosph-ERK Assay described below. Growth-factor induction of the RAS/MEK/ERK signaling pathway leads to the induction of phosphorylation of a number of proteins including phospho-ERK (See C. J. Marshall, MAP kinase kinase kinase, MAP kinase kinase and MAP kinase, Current Opinions in Genetic Development, 1994, 4: p. 82-89). The importance of this pathway in cancer biology has been recognized in the art. Activation of the RAS signaling pathway is an important mechanism by which cancer develops (R. Herrera, et al, Unraveling the complexities of the Raf/MAP kinase pathway for pharmacological intervention, Trends Mol. Med., 2002, 8: p. S27-31). Mutational activation of RAS or downstream effectors as well as growth factor induction of this pathway leads to increased tumor cell proliferation and survival (A. A. Adjei, Blocking oncogenic RAS signaling for cancer therapy, J. Natl. Cancer Inst., 2001, 93(14): p. 1062-1074; J Schlessinger, Cell signaling by receptor tyrosine kinases, Cell, 2000, 103: p. 211-225). Phospho-ERK Cytoblot Assay Protocol with MDA-MB 231 Cells MDA-MB-231 cells in log phase were plated at 25,000 cells/well in 96-well opaque plates (Falcon, USA Cat # 353296) in 100 μL RPMI medium containing 10% (w/v) FBS, and incubated overnight at 37° C. in 5% CO2 incubator. The following day, the growth medium was removed from the plate by aspiration and replaced with RPMI medium containing 0.1% BSA and example compounds diluted to generate final concentrations of 0.0, 0.001, 0.003, 0.01, 0.03, 0.1, 0.3, 1 and 3 μM. Cells were incubated with compound for 1 hour at 37° C. in a 5% CO2 incubator. The media was then removed from the plate by aspiration and the cells were washed once with 180 μL/well cold Tris Buffered Saline (TBS). After removal of the wash buffer, the cells were fixed by adding 180 μL of cold 3.7% (v/v) formaldehyde in TBS to each well for 1 hour at 4° C. After removal of the formaldehyde, the cells were treated with the addition of 60 μL of −20° C. methanol to each well for 5 minutes at 4° C. The methanol was removed and the cells were washed with 180 μL/well of 5% (w/v) BSA in TBS. To block non-specific antibody binding sites, each well was treated with 180 μL/well 5% BSA (w/v) in TBS for thirty minutes at room temperature. After removal of the blocking buffer, 50 μL of an anti-phospho-p44/42 MAP kinase (Thr202/Tyr204) rabbit polyclonal antibody (Cell Signaling, USA Cat # 9101) was added to each well at a dilution of 1:1000 in 5% (w/v) BSA in TBS, and the plate was incubated at 4° C. overnight. Plates were then washed three times with 300 μL/well TBS at room temperature. The plates were then incubated with 50 μL of Horseradish peroxidase (HRP)-conjugated goat-anti-rabbit antibody (Amersham, USA Cat. # NA934V) at a dilution of 1:1000 in 5% BSA-TBS at room temperature for 1 hr. After washing the plate three times with 300 μL/well TBS, 60 μL of Enhanced Chemiluminescence (ECL) reagent (Amersham, USA Cat# RPN2209) was added to each well and incubated at room temperature for five minutes. The plate was then read on a Perkin Elmer Victor 5 Multilabel Counter (#1420-0421). […] The utility of the compounds of the present invention can also be illustrated, for example, by their activity in the flk-1 (murine VEGFR2) Assay described below. The VEGF-VEGFR2 signaling pathway has been extensively characterized as an important regulator of angiogenesis and tumor angiogeneisis (See G. Yancopoulos et al, Vascular-specific growth factors and blood vessel formation, Nature, 2000, 407: p. 242-248; D. Shweiki et al, Induction of vascular endothelial growth factor expression by hypoxia and by glucose deficiency in multi cell spheroids: Implications for tumor angiogenesis, Proc. Natl. Acad. Sci, 1995, 92: p. 768-772). Inhibition of tumor cell growth by blocking this pathway has been well documented in the art. […]

T1 sequence (P35918 832-1160 limits assumed): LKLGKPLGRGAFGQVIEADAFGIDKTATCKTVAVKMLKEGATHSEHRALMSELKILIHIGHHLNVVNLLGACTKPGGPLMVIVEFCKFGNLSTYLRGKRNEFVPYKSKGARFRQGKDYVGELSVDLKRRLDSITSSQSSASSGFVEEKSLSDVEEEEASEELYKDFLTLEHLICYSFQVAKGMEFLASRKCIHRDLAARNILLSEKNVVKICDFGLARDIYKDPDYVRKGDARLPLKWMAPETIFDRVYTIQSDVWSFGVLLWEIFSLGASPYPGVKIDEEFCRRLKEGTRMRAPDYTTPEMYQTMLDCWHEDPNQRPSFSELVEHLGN

| Structure (SMILES) | pIC50 [1] | pIC50 [2] | pIC50 [3] |
| --- | --- | --- | --- |
| NC(=O)c1cc(CNc2ncsc2C(=O)Nc2ccc3c(c2)OC(F)(F)O3)ccn1 [Example 3, 4-{[(5-{[(2,2-difluoro-1,3-benzodioxol-5-yl)amino]carbonyl}-1,3-thiazol-4-yl)amino]methyl}pyridine-2-carboxamide] | > 6.30 | > 6.30 |  |
| CNC(=O)Nc1cc(CNc2ncsc2C(=O)Nc2ccc3c(c2)OC(F)(F)O3)ccn1 [Example 18, N-(2,2-difluoro-1,3-benzodioxol-5-yl)-4-{[(2-{[(methylamino)carbonyl]amino}pyridin-4-yl)methyl]amino}-1,3-thiazole-5-carboxamide] | > 6.30 | > 6.30 | > 5.52 |
| CC(=O)OCC(=O)Nc1cc(CNc2ncsc2C(=O)Nc2ccc3c(c2)OC(F)(F)C(F)(F)O3)ccn1 [Example 14, 2-oxo-2-[(4-{[(5-{[(2,2,3,3-tetrafluoro-2,3-dihydro-1,4-benzodioxin-6-yl)amino]carbonyl}-1,3-thiazol-4-yl)amino]methyl}pyridin-2-yl)amino]ethyl acetate] | > 6.30 | > 6.30 | > 5.52 |
| COCC(=O)Nc1cc(CNc2ncsc2C(=O)Nc2ccc3c(c2)OC(F)(F)C(F)(F)O3)ccn1 [Example 8, 4-[({2-[(methoxyacetyl)amino]pyridin-4-yl}methyl)amino]-N-(2,2,3,3-tetrafluoro-2,3-dihydro-1,4-benzodioxin-6-yl)-1,3-thiazole-5-carboxamide] | > 6.30 | > 6.30 | > 5.52 |
| CN(C)CCCCNC(=O)c1cc(CNc2ncsc2C(=O)Nc2ccc3c(c2)OC(F)(F)O3)ccn1 [Example 6, 4-{[(5-{[(2,2-difluoro-1,3-benzodioxol-5-yl)amino]carbonyl}-1,3-thiazol-4-yl)amino]methyl}-N-[4-(dimethylamino)butyl]pyridine-2-carboxamide] | > 6.30 | > 6.30 |  |
| CS(=O)(=O)Nc1cc(CNc2ncsc2C(=O)Nc2ccc3c(c2)OC(F)(F)C(F)(F)O3)ccn1 [Example 12, 4-[({2-[(methylsulfonyl)amino]pyridin-4-yl}methyl)amino]-N-(2,2,3,3-tetrafluoro-2,3-dihydro-1,4-benzodioxin-6-yl)-1,3-thiazole-5-carboxamide] | > 6.30 | > 6.30 |  |
| CNC(=O)c1cc(CNc2ncsc2C(=O)Nc2ccc3c(c2)OC(F)(F)O3)ccn1 [Example 1, 4-{[(5-{[(2,2-difluoro-1,3-benzodioxol-5-yl)amino]carbonyl}-1,3-thiazol-4-yl)amino]methyl}-N-methylpyridine-2-carboxamide] | > 6.30 | > 6.30 | > 5.52 |
| CNC(=O)Nc1cc(CNc2ncsc2C(=O)Nc2ccc3c(c2)OC(F)(F)C(F)(F)O3)ccn1 [Example 20, 4-{[(2-{[(methylamino)carbonyl]amino}pyridin-4-yl)methyl]amino}-N-(2,2,3,3-tetrafluoro-2,3-dihydro-1,4-benzodioxin-6-yl)-1,3-thiazole-5-carboxamide] | > 6.30 | > 6.30 | > 5.52 |
| COCC(=O)Nc1cc(CNc2ncsc2C(=O)Nc2ccc3c(c2)OC(F)(F)O3)ccn1 [Example 7, N-(2,2-difluoro-1,3-benzodioxol-5-yl)-4-[([2-[(methoxyacetyl)amino]pyridin-4-yl]methyl)amino]-1,3-thiazole-5-carboxamide] | > 6.30 | > 6.30 | > 5.52 |
| O=C(NCCCCN1CCCC1)c1cc(CNc2ncsc2C(=O)Nc2ccc3c(c2)OC(F)(F)O3)ccn1 [Example 5, 4-{[(5-{[(2,2-difluoro-1,3-benzodioxol-5-yl)amino]carbonyl}-1,3-thiazol-4-yl)amino]methyl}-N-(4-pyrrolidin-1-ylbutyl)pyridine-2-carboxamide] | > 6.30 |  |  |
| CCNC(=O)Nc1cc(CNc2ncsc2C(=O)Nc2ccc3c(c2)OC(F)(F)C(F)(F)O3)ccn1 [Example 21, 4-{[(2-{[(ethylamino)carbonyl]amino}pyridin-4-yl)methyl]amino}-N-(2,2,3,3-tetrafluoro-2,3-dihydro-1,4-benzodioxin-6-yl)-1,3-thiazole-5-carboxamide] | > 6.30 | > 6.30 | > 5.52 |
| Nc1cc(CNc2ncsc2C(=O)Nc2ccc3c(c2)OC(F)(F)O3)ccn1 [Example 15, 4-{[(2-aminopyridin-4-yl)methyl]amino}-N-(2,2-difluoro-1,3-benzodioxol-5-yl)-1,3-thiazole-5-carboxamide] |  | > 6.30 |  |
| Nc1cc(CNc2ncsc2C(=O)Nc2ccc3c(c2)OC(F)(F)C(F)(F)O3)ccn1 [Example 16, 4-{[(2-aminopyridin-4-yl)methyl]amino}-N-(2,2,3,3-tetrafluoro-2,3-dihydro-1,4-benzodioxin-6-yl)-1,3-thiazole-5-carboxamide] | > 6.30 | > 6.30 |  |
